Experimental data from the supplement of paper PMC11061612.

Columns and labels:
Capivasertib = compound: C1CN(CCC1(C(=O)N[C@@H](CCO)C2=CC=C(C=C2)Cl)N)C3=NC=NC4=C3C=CN4 [Capivasertib]; conditions: max 10 µM
Summary of the method: (§1)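 Following 24 hours at 37°C and 5% CO2, cancer cell lines in 1536-well plates with 7.5 μl DMEM/F12 or RPMI and 10% FBS were dosed for 72 hours, final DMSO typically being 0.2%. CellTiter-Glo 2.0 luminescence, scaled between blank-well and DMSO-well means, gave the viability readout. Dose responses were fitted to a two-parameter logistic curve with a non-linear mixed effects model, and the single-agent IC50 was derived from this fit.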

AZD1775 = compound: C=CCn1c(=O)c2cnc(Nc3ccc(N4CCN(C)CC4)cc3)nc2n1-c1cccc(C(C)(C)O)n1 [AZD1775]; conditions: max 3 µM
Summary of the method: as §1

Trametinib = compound: CC(=O)Nc1cccc(-n2c(=O)n(C3CC3)c(=O)c3c(Nc4ccc(I)cc4F)n(C)c(=O)c(C)c32)c1 [Trametinib]; conditions: max 1 µM
Summary of the method: as §1

Palbociclib = compound: CC(=O)c1c(C)c2cnc(Nc3ccc(N4CCNCC4)cn3)nc2n(C2CCCC2)c1=O [Palbociclib]; conditions: max 10 µM
Summary of the method: as §1

AZD1390 = compound: CC(C)n1c(=O)n(C)c2cnc3cc(F)c(-c4ccc(OCCCN5CCCCC5)nc4)cc3c21 [AZD1390]; conditions: max 0.3 µM
Summary of the method: as §1

Venetoclax = compound: CC1(C)CCC(CN2CCN(c3ccc(C(=O)NS(=O)(=O)c4ccc(NCC5CCOCC5)c([N+](=O)[O-])c4)c(Oc4cnc5[nH]ccc5c4)c3)CC2)=C(c2ccc(Cl)cc2)C1 [Venetoclax]; conditions: max 1 µM
Summary of the method: as §1

Dasatinib = compound: CC1=C(C(=CC=C1)Cl)NC(=O)C2=CN=C(S2)NC3=CC(=NC(=N3)C)N4CCN(CC4)CCO [Dasatinib]; conditions: max 2 µM
Summary of the method: as §1

SG3199 = compound: CC1=CN2[C@@H](C1)C=NC3=CC(=C(C=C3C2=O)OC)OCCCCCOC4=C(C=C5C(=C4)N=C[C@@H]6CC(=CN6C5=O)C)OC [SG3199]; conditions: max 0.001 µM
Summary of the method: as §1

AZD2811 = compound: CCN(CCO)CCCOc1ccc2c(Nc3cc(CC(=O)Nc4cccc(F)c4)[nH]n3)ncnc2c1 [AZD2811]; conditions: max 1 µM
Summary of the method: as §1

SN-38 = compound: CCc1c2c(nc3ccc(O)cc13)-c1cc3c(c(=O)n1C2)COC(=O)[C@]3(O)CC [SN-38]; conditions: max 0.3 µM
Summary of the method: as §1

AZD0156 = compound: CN(C)CCCOc1ccc(-c2ccc3ncc4c(c3c2)n(C2CCOCC2)c(=O)n4C)cn1 [AZD0156]; conditions: max 3 µM
Summary of the method: as §1

AZD4320 = compound: CN(CC[C@H](CSC1=CC=CC=C1)NC2=C(C=C(C=C2)S(=O)(=O)NC(=O)C3=CC=C(C=C3)N4CCC(CC4)[C@H](C5=CC=CC=C5C6=CC=C(C=C6)Cl)O)S(=O)(=O)C(F)(F)F)CCO [AZD4320]; conditions: max 1 µM
Summary of the method: as §1

Alisertib = compound: COc1cc(Nc2ncc3c(n2)-c2ccc(Cl)cc2C(c2c(F)cccc2OC)=NC3)ccc1C(=O)O [Alisertib]; conditions: max 10 µM
Summary of the method: as §1

Gefitinib = compound: COc1cc2ncnc(Nc3ccc(F)c(Cl)c3)c2cc1OCCCN1CCOCC1 [Gefitinib]; conditions: max 10 µM
Summary of the method: as §1

Prexasertib = compound: COc1cccc(OCCCN)c1-c1cc(Nc2cnc(C#N)cn2)n[nH]1 [Prexasertib]; conditions: max 1 µM
Summary of the method: as §1

Doxorubicin = compound: COc1cccc2c1C(=O)c1c(O)c3c(c(O)c1C2=O)C[C@@](O)(C(=O)CO)C[C@@H]3O[C@H]1C[C@H](N)[C@H](O)[C@H](C)O1 [Doxorubicin]; conditions: max 1 µM
Summary of the method: as §1

AZD5153 = compound: COc1nnc2ccc(N3CCC(c4ccc(OCCN5CCN(C)C(=O)[C@H]5C)cc4)CC3)nn12 [AZD5153]; conditions: max 1 µM
Summary of the method: as §1

Lapatinib = compound: CS(=O)(=O)CCNCc1ccc(-c2ccc3ncnc(Nc4ccc(OCc5cccc(F)c5)c(Cl)c4)c3c2)o1 [Lapatinib]; conditions: max 10 µM
Summary of the method: as §1

AZD8186 = compound: C[C@@H](Nc1cc(F)cc(F)c1)c1cc(C(=O)N(C)C)cc2c(=O)cc(N3CCOCC3)oc12 [AZD8186]; conditions: max 3 µM
Summary of the method: as §1

Crizotinib = compound: C[C@@H](Oc1cc(-c2cnn(C3CCNCC3)c2)cnc1N)c1c(Cl)ccc(F)c1Cl [Crizotinib]; conditions: max 10 µM
Summary of the method: as §1

Savolitinib = compound: C[C@@H](c1ccc2nccn2c1)n1nnc2ncc(-c3cnn(C)c3)nc21 [Savolitinib]; conditions: max 1 µM
Summary of the method: as §1

AZD6738 = compound: C[C@@H]1COCCN1C2=NC(=NC(=C2)C3(CC3)[S@](=N)(=O)C)C4=C5C=CNC5=NC=C4 [AZD6738]; conditions: max 10 µM
Summary of the method: as §1

AZD5991 = compound: Cc1c2c(nn1C)CSCc1cc(n(C)n1)CSc1cc(c3ccccc3c1)OCCCc1c(C(=O)O)n(C)c3c-2c(Cl)ccc13 [AZD5991]; conditions: max 1 µM
Summary of the method: as §1

AZD7648 = compound: Cc1cc2ncnn2cc1Nc1ncc2c(n1)n(C1CCOCC1)c(=O)n2C [AZD7648]; conditions: max 10 µM
Summary of the method: as §1

Taselisib = compound: Cc1nc(-c2cn3c(n2)-c2ccc(-c4cnn(C(C)(C)C(N)=O)c4)cc2OCC3)n(C(C)C)n1 [Taselisib]; conditions: max 10 µM
Summary of the method: as §1

Selumetinib = compound: Cn1cnc2c(F)c(Nc3ccc(Br)cc3Cl)c(C(=O)NOCCO)cc21 [Selumetinib]; conditions: max 10 µM
Summary of the method: as §1

Olaparib = compound: O=C(c1cc(Cc2n[nH]c(=O)c3ccccc23)ccc1F)N1CCN(C(=O)C2CC2)CC1 [Olaparib]; conditions: max 10 µM
Summary of the method: as §1

MK-2206 = compound: NC1(c2ccc(-c3nc4ccn5c(=O)[nH]nc5c4cc3-c3ccccc3)cc2)CCC1 [MK-2206]; conditions: max 10 µM
Summary of the method: as §1

Cell Line | IC50, cell viability 72 h (Capivasertib) [nM] | IC50, cell viability 72 h (AZD1775) [nM] | IC50, cell viability 72 h (Trametinib) [nM] | IC50, cell viability 72 h (Palbociclib) [nM] | IC50, cell viability 72 h (AZD1390) [nM] | IC50, cell viability 72 h (Venetoclax) [nM] | IC50, cell viability 72 h (Dasatinib) [nM] | IC50, cell viability 72 h (SG3199) [nM] | IC50, cell viability 72 h (AZD2811) [nM] | IC50, cell viability 72 h (SN-38) [nM] | IC50, cell viability 72 h (AZD0156) [nM] | IC50, cell viability 72 h (AZD4320) [nM] | IC50, cell viability 72 h (Alisertib) [nM] | IC50, cell viability 72 h (Gefitinib) [nM] | IC50, cell viability 72 h (Prexasertib) [nM] | IC50, cell viability 72 h (Doxorubicin) [nM] | IC50, cell viability 72 h (AZD5153) [nM] | IC50, cell viability 72 h (Lapatinib) [nM] | IC50, cell viability 72 h (AZD8186) [nM] | IC50, cell viability 72 h (Crizotinib) [nM] | IC50, cell viability 72 h (Savolitinib) [nM] | IC50, cell viability 72 h (AZD6738) [nM] | IC50, cell viability 72 h (AZD5991) [nM] | IC50, cell viability 72 h (AZD7648) [nM] | IC50, cell viability 72 h (Taselisib) [nM] | IC50, cell viability 72 h (Selumetinib) [nM] | IC50, cell viability 72 h (Olaparib) [nM] | IC50, cell viability 72 h (MK-2206) [nM]
HT-3 (Cervical Carcinoma) | > 10000 | 2340 | > 1000 | > 10000 | > 300 | > 1000 | > 2000 | > 1 | > 1000 | 8.56 | > 3000 | > 1000 | > 10000 | > 10000 | > 1000 | 732 | > 1000 | > 10000 | > 3000 | > 10000 | > 1000 | > 10000 | > 1000 | > 10000 | > 10000 | > 10000 | > 10000 | –
SCC90 (Head and Neck Carcinoma) | 2300 | > 3000 | 7.16 | > 10000 | > 300 | > 1000 | > 2000 | > 1 | > 1000 | > 300 | > 3000 | > 1000 | 7380 | 970 | 122 | > 1000 | > 1000 | 882 | > 3000 | > 10000 | > 1000 | > 10000 | 266 | > 10000 | 1900 | 497 | > 10000 | 8220
Daudi (Burkitt's Lymphoma) | > 10000 | 1020 | > 1000 | > 10000 | > 300 | > 1000 | 627 | > 1 | > 1000 | 8.52 | > 3000 | > 1000 | 884 | > 10000 | 29.2 | 173 | 243 | > 10000 | > 3000 | 5560 | > 1000 | 3880 | > 1000 | > 10000 | 8260 | > 10000 | > 10000 | –
